Data taken from patent US9156881B2, “Tripeptide KDPT for antiapoptotic treatment” (WESTFAELISCHE WILHELMS-UNIVERSITAET MUENSTER, priority 2011, dated 2015).

Key:
[1] = system: murine DSS colitis; experiment: Epithelial apoptosis rate in murine DSS-colitis (anti-active Caspase 3 staining of colon sections); type: in vivo; conditions: DSS-treated WT mice, KdPT 10 μg/day/animal i.p. daily, vs PBS control, P<0.05
Description: To further evaluate the impact of KdPT on the epithelial apoptosis rate in vivo, the murine DSS colitis was performed. Dextran sodium sulfate (DSS)-induced colitis was accomplished as described in Bettenworth Am J Pathol 2011. WT mice were given 3% DSS (ICN Biomedicals Inc., Eschwege, Germany) in drinking water for 5 days, and disease activity was monitored daily by body weight measurement. Afterwards, the mice received regular drinking water again to monitor the improvement in inflammation. PBS-diluted KdPT (10 μg/day/animal; Bachem Americas Inc., Torrance, Calif.) was given daily by intraperitoneal (i.p.). injection until the end of the experiment. Control mice received PBS only.
At the end of the experiment, the mice were sacrificed and the colons removed. The colons were opened, embedded in Tissue-Tek O.C.T. (Sukura Finetek Europe, Zoeterwoude, The Netherlands), and kept frozen at −80° C. until further use. […] Immunhistological stainings were analyzed by two blinded investigators.
To assess apoptosis rate, the number of anti-active Caspase 3 positive cells per total crypt epithelial cells was counted. The number of anti-active Caspase 3 positive cells in colonic tissue was assessed as a […], determined after KdPT administration in DSS-treated mice.

[2] = system: colonic epithelial cells; conditions: cited from earlier work
[3] = system: melanogenesis; conditions: in vitro; cited from earlier work
[4] = system: caco-2 cells (human intestinal epithelial cells); experiment: M30-ApoptosisSense ELISA (cytokeratin 18) apoptosis rate in intestinal epithelial cells; type: cell-based; conditions: p<0.05, FIG. 1
Description: The apoptosis rate in epithelial cells was measured by the M30-ApoptosisSense ELISA
(PEVIVA, Bromma, Sweden), detecting cytokeratin 18 with a specific monoclonal M30 antibody, whereas before cytokeratin 18 was cleaved by the enzyme caspase. The caco-2 cells (human intestinal epithelial cells) grew semiconfluent in cell culture flasks, before plating them on a 6 well plate. One plate was stimulated with 10^−5 and 10^−6 M KdPT solved in routine medium (SFM, white column), the control plate was stimulated with the routine-medium alone.

[5] = system: human dermal microvascular endothelial cells (HMEC); experiment: M30-ApoptosisSense ELISA (cytokeratin 18) apoptosis rate in HMEC; type: cell-based
Description: To further elucidate the impact of KdPT administration on apoptosis in a different human cell line, additional experiments were performed in human dermal microvascular endothelial cells (HMEC) which are endothelial cells. The apoptosis rate in epithelial cells was measured by the M30-ApoptosisSense ELISA (PEVIVA, Bromma, Sweden), detecting cytokeratin 18 with a specific monoclonal M30 antibody, whereas before cytokeratin 18 was cleaved by the enzyme caspase. The HMEC cells grew semiconfluent in cell culture flasks, before plating them on a 6 well plate. One plate was stimulated with 10-5 and 10-6 M KdPT solved in routine medium (SFM, white column), the control plate was stimulated with the routine-medium alone.

[6] = system: experimental colitis; conditions: both colitis models (DSS, IL-10 gene-deficient mice); cited from earlier work
[7] = system: human sebocytes; conditions: cited from earlier work

For (I)Lys-(d)Pro-(I)Thr [KdPT], the “number of anti-active Caspase 3 positive cells per total crypt epithelial cells” value [1] is given as “dramatically decreased”, the transepithelial electrical resistance ([2]; after stimulation with interferon-γ/tumor necrosis factor-α) is given as “improved transepithelial electrical resistance” and the closure of wounds ([2]; colonic epithelial cells) is given as “accelerated closure of wounds”. For the same substance, the proliferation ([2]; colonic epithelial cells) was “increased proliferation”, the melanogenesis [3] was “did not affect melanogenesis” and the “apoptosis rate on costimulation with KdPT (in words)” value [4] was “significant reduction of the apoptosis rate”. The “apoptosis rate (M30 ELISA, cytokeratin 18)” value ([5]; HMEC costimulated with KdPT, 24 h incubation, control 1150.5 U/I) was 965.9 U/I, the “reduction of apoptosis rate” value ([5]; HMEC, 10-5 and 10-6 M KdPT, 24 h incubation, vs control plate, p=0.002) was 19.2% and the “apoptosis rate on costimulation with KdPT (in words)” value ([5]; HMEC, FIG. 2) was “significant reduction of the apoptosis rate”. For the same substance, the severity of inflammation [6] was “markedly reduced severity of inflammation” and the “IL-1(beta)-mediated cytokine expression and signaling” value [7] was “suppresses”.
